Assay results taken from patent US20250075278A1, “EPIGENTIC REGULATION AND CO-TARGETING APPROACHES OF PSMA IN PROSTRATE CANCER” (Fred Hutchinson Cancer Center, priority 2023, published 2025).
“Also recorded” adds a separate entry of the source.

Assays:
[1] = system: DU145, LAPC4, and LuCaP 35CR CL; assay: PSMA protein expression in cell line models treated with epigenetic modifiers (flow cytometry and fluorescence immunocytochemistry); type: cell-based; settings: for PSMA expression after HDACi treatment: in vitro and in vivo
Procedure: Cell lines and in vitro experiments. […] All drugs were diluted in DMSO.
To this end, 3 cell line models (DU145, LAPC4, and LuCaP 35CR CL) were treated with the DNMTi decitabine and pan-HDACi (panobinostat, CUDC-907, vorinostat) and applied 2 orthogonal approaches (flow cytometry and fluorescence immunocytochemistry) and 2 separate monoclonal antibodies (3E6 and LNI-17) to measure PSMA protein expression.

[2] = system: LuCaP 35CR xenografts; assay: PSMA IHC of LuCaP 35CR PDX tumors grown in treated mice; type: in vivo; settings: LuCaP 35CR PDX in castrated CB17SCID mice, 75 mg/kg/day, 21 days, vs 30% Captisol control
Procedure: In vivo experiments. All surgical procedures were performed under isoflurane anesthesia. LuCaP 35CR tumors (1 mm3) were surgically implanted s.c. into castrated male CB17SCID mice (The Jackson Laboratory) (59). When tumors reached a volume between 150 mm3 and 200 mm3, mice were administered CUDC-907 (Curis Inc.), a combined pan-HDAC/PI3K inhibitor dissolved in 30% captisol (Thermo Fisher Scientific). Treated mice received 75 mg/kg/day for 5 days, followed by 2 days off treatment, repeated for a total of 21 days or until the diameter of the tumor reached 2 cm. The same volume of 30% captisol, in the same manner as described above, was used to treat the vehicle group. […]
IHC staining. […] Immunocomplexes were detected using PV poly-HRP anti-mouse IgG (Leica Microsystems, PV6114) with DAB as the chromogen. […] Immunocomplexes were detected using the Biotin XX Tyramide SuperBoost kit (Invitrogen, B40931) per manufacturer's protocol with DAB as the chromogen. […] Immunocomplexes were detected using Tyramide Signal Amplification system from Thermo Fisher Scientific. […] Membranous PSMA expression was scored in a blinded manner by 2 pathologists, whereby the optical density level (“0” for no brown color, “1” for faint and fine brown chromogen deposition, and “2” for prominent chromogen deposition) was multiplied by the percentage of cells at each staining level, resulting in a total score range of 0-200. […]

Row | Compound | PSMA re-expression (density plot, FIG. 5H) ([1]; 10 μM, cell line not stated) | PSMA expression in tumors (IHC, PSMA-positive cells) [2] | PSMA expression after HDACi treatment [1]
1 | O=C(CNc1cccc2c1C(=O)N(C1CCC(=O)NC1=O)C2=O)NCCCOc1ccc(NC(=O)c2ccc(CN(C(=O)c3ccc4c(c3)OCC(=O)N4)C3CC3)cc2)nc1 (stereo not shown) [MS159] | PSMA re-expression |  | 
2 | COc1ccc(-c2nc(N3CCOCC3)c3sc(CN(C)c4ncc(C(=O)NO)cn4)cc3n2)cn1 [CUDC-907] |  | significantly increased PSMA expression; also recorded: enhanced PSMA expression | significant upregulation of PSMA expression
3 | O=C(CCCCCCC(=O)Nc1ccccc1)NO [vorinostat] |  |  | significant upregulation of PSMA expression
